Measurements from DBAASP.
In brackets after ≈: the same amount, converted by molar mass. Several values for one entry are separate records, joined by “and”; a condition that tells them apart may be missing. Identical values can stand only once. Each block holds one molecule with its values, some of them ahead of it.

What was measured:
Test in all cases: ≥ marks a high value that may be exact or a test limit, other limits are often not marked, values filed in µg/mL are converted to µM
[1] = system: Escherichia coli ATCC 11775
[2] = system: Micrococcus luteus ATCC 49732
[3] = system: Candida albicans ATCC 14053
[4] = system: Staphylococcus aureus ATCC 12600
[5] = system: Staphylococcus aureus NCTC 10788
[6] = system: Escherichia coli NCTC 10418
[7] = system: Pseudomonas aeruginosa ATCC 27853
[8] = system: Candida albicans NCTC 1467
[9] = system: Staphylococcus aureus NCTC 12493
[10] = system: Klebsiella pneumoniae ATCC 43816
[11] = system: Acinetobacter baumannii KCTC 2508
[12] = system: Klebsiella pneumoniae KCTC 2208
[13] = system: Candida albicans ATCC 10231
[14] = system: Escherichia coli ATCC 25922
[15] = system: Enterococcus faecalis ATCC 29212
[16] = system: Staphylococcus epidermidis KCTC 1917
[17] = system: Pseudomonas aeruginosa ATCC 15422
Escherichia coli MG1655 = system: Escherichia coli MG1655
[18] = system: Staphylococcus aureus ATCC 25923
[19] = system: Pseudomonas aeruginosa ATCC 10145
[20] = system: Klebsiella pneumoniae ATCC 700603
[21] = system: Pseudomonas aeruginosa ATCC 47085
Escherichia coli = system: Escherichia coli
[22] = system: Candida albicans ATCC 24433
[23] = system: Candida parapsilosis ATCC 22019
[24] = system: Trichophyton rubrum ATCC 28189
Staphylococcus aureus = system: Staphylococcus aureus
Micrococcus luteus A270 = system: Micrococcus luteus A270
Escherichia coli SBS 363 = system: Escherichia coli SBS 363
Candida albicans MDM8 = system: Candida albicans MDM8

MIC [1]: ≥ 97 µM
MIC [2]: ≥ 97 µM
MIC [3]: ≥ 291 µM
MIC [4]: ≥ 97 µM
SMILES: CC(C)C[C@H](NC(=O)[C@H](CO)NC(=O)[C@@H](NC(=O)[C@@H](N)CCC(=O)O)C(C)C)C(=O)N[C@@H](CC(N)=O)C(=O)N[C@@H](CO)C(=O)NCC(=O)N[C@@H](Cc1ccc(O)cc1)C(=O)N[C@@H](Cc1ccc(O)cc1)C(=O)O [EVSLNSGYY]

MIC [5]: ≥ 128 µM
MIC [6]: ≥ 64 µM
MIC [7]: > 128 µM
MIC [8]: ≥ 128 µM
MIC [9]: ≥ 128 µM
MIC [10]: ≥ 128 µM
SMILES: CC[C@H](C)[C@@H]1NC(=O)[C@H](CC(C)C)NC(=O)[C@@H](NC(=O)[C@@H](NC(=O)[C@@H](NC(=O)[C@H](C)NC(=O)CNC(=O)[C@H](CC(C)C)NC(=O)[C@H](C)NC(=O)[C@@H](N)Cc2ccccc2)C(C)C)[C@@H](C)O)CSSC[C@@H](C(=O)N[C@@H](CCCCN)C(=O)N[C@H](C(=O)N[C@@H](CC(C)C)C(=O)N2CCC[C@H]2C(=O)N[C@@H](CCCCN)C(=O)N[C@@H](CC(C)C)C(=O)N[C@@H](Cc2ccccc2)C(=O)O)C(C)C)NC(=O)[C@H](CCCCN)NC(=O)[C@H]([C@@H](C)O)NC(=O)[C@H](CCCN=C(N)N)NC1=O [FALGAVTCLIRTKCKVLPKLF]

MIC [7]: 8 µM (≈ 23.9 µg/mL)
MIC [11]: 4 µM (≈ 12 µg/mL)
MIC [12]: 4 µM (≈ 12 µg/mL)
SMILES: CC[C@H](C)[C@H](N)C(=O)N[C@@H](C)C(=O)N[C@@H](CCCN=C(N)N)C(=O)N[C@@H](CCCN=C(N)N)C(=O)N[C@@H](C)C(=O)N[C@@H](CC(C)C)C(=O)N[C@@H](CCCCN)C(=O)N[C@@H](CCCCN)C(=O)N[C@@H](CO)C(=O)N[C@@H](CC(C)C)C(=O)N[C@@H](CCCN=C(N)N)C(=O)N[C@@H](C)C(=O)N[C@@H](CCCN=C(N)N)C(=O)N[C@@H](Cc1cnc[nH]1)C(=O)N[C@H](C(=O)N[C@H](C(=O)N1CCC[C@H]1C(=O)N[C@@H](CCC(N)=O)C(=O)N[C@@H](CS)C(=O)N[C@@H](CCCCN)C(=O)N[C@@H](CCCCN)C(=O)N[C@@H](Cc1ccccc1)C(=O)NCC(=O)N[C@@H](CCCN=C(N)N)C(=O)N[C@@H](CCCN=C(N)N)C(N)=O)[C@@H](C)CC)[C@@H](C)O [IARRALKKSLRARHTIPQCKKFGRR]

MIC [7]: 8 µM (≈ 23.6 µg/mL)
MIC [11]: 16 µM (≈ 47.2 µg/mL)
MIC [12]: 8 µM (≈ 23.6 µg/mL)
SMILES: CC[C@H](C)[C@H](N)C(=O)N[C@@H](C)C(=O)N[C@@H](CCCN=C(N)N)C(=O)N[C@@H](CCCN=C(N)N)C(=O)N[C@@H](CC(N)=O)C(=O)N[C@@H](CC(C)C)C(=O)N[C@@H](CS)C(=O)N[C@@H](C)C(=O)N[C@@H](CO)C(=O)N[C@@H](CC(C)C)C(=O)N[C@@H](CCCN=C(N)N)C(=O)N[C@@H](C)C(=O)N[C@@H](CCCN=C(N)N)C(=O)N[C@@H](Cc1cnc[nH]1)C(=O)N[C@H](C(=O)N[C@H](C(=O)N1CCC[C@H]1C(=O)N[C@@H](CCC(N)=O)C(=O)N[C@@H](CS)C(=O)N[C@@H](CCCCN)C(=O)N[C@@H](CCCCN)C(=O)N[C@@H](Cc1ccccc1)C(=O)NCC(=O)N[C@@H](CCCN=C(N)N)C(=O)N[C@@H](CCCN=C(N)N)C(N)=O)[C@@H](C)CC)[C@@H](C)O [IARRNLCASLRARHTIPQCKKFGRR]

MIC [13]: > 500 µM
MIC [14]: > 500 µM
MIC [15]: 422 µM and 405 µM and 252 µM
MIC [16]: ≥ 267 µM
MIC [17]: ≥ 500 µM
SMILES: CC(C)C[C@H](NC(=O)CNC(=O)[C@H](Cc1ccc(O)cc1)NC(=O)[C@H](C)NC(=O)[C@@H]1CCCN1C(=O)[C@H](CC(C)C)NC(=O)[C@H](CCC(=O)O)NC(=O)[C@H](Cc1ccccc1)NC(=O)[C@H](Cc1cnc[nH]1)NC(=O)[C@H](CO)NC(=O)[C@@H](N)CCCCN)C(=O)O [KSHFELPAYGL]

MIC (Escherichia coli MG1655): 15 µM (≈ 20.9 µg/mL)
MIC [18]: > 15 µM
MIC [19]: 15 µM (≈ 20.9 µg/mL)
MIC [20]: > 15 µM
SMILES: CC(C)C[C@H](NC(=O)[C@H](Cc1c[nH]c2ccccc12)NC(=O)[C@H](Cc1cnc[nH]1)NC(=O)[C@H](CCCCN)NC(=O)[C@H](CC(C)C)NC(=O)[C@H](C)NC(=O)[C@H](CC(C)C)NC(=O)[C@H](CCCCN)NC(=O)CNC(=O)[C@@H](NC(=O)[C@@H](NC(=O)[C@@H](N)CCCCN)[C@@H](C)O)C(C)C)C(=O)O [KTVGKLALKHWL]

MIC [1]: 31 µM (≈ 22.3 µg/mL)
MIC [2]: 31 µM (≈ 22.3 µg/mL)
MIC [3]: ≥ 201 µM
MIC [4]: 31 µM (≈ 22.3 µg/mL)
SMILES: CC(C)[C@H](NC(=O)[C@H](C)NC(=O)[C@@H](NC(=O)CNC(=O)[C@@H]1CCCN1)[C@@H](C)O)C(=O)N[C@@H](Cc1ccccc1)C(=O)N[C@@H](CCCCN)C(=O)O [PGTAVFK]

MIC [21]: ≥ 55 µM
MIC [18]: 13.7 µM (≈ 30.5 µg/mL)
SMILES: CC[C@H](C)[C@H](NC(=O)[C@H](CCCN=C(N)N)NC(=O)[C@H](CCC(N)=O)NC(=O)[C@@H](NC(=O)[C@@H](NC(=O)[C@@H](N)CCCN=C(N)N)[C@@H](C)CC)C(C)C)C(=O)N[C@@H](C)C(=O)N[C@@H](CCCCN)C(=O)N[C@@H](Cc1c[nH]c2ccccc12)C(=O)N[C@@H](C)C(=O)N[C@@H](CCCCN)C(=O)N[C@@H](CCCCN)C(=O)N[C@@H](Cc1c[nH]c2ccccc12)C(=O)N[C@@H](Cc1ccc(O)cc1)C(=O)N[C@@H](CCCCN)C(=O)N[C@@H](C)C(=O)NCC(=O)N[C@@H](CCCCN)C(N)=O [RIVQRIAKWAKKWYKAGK]

MIC [21]: 27 µM (≈ 63.6 µg/mL)
MIC [18]: 13.6 µM (≈ 32 µg/mL)
SMILES: CC[C@H](C)[C@H](NC(=O)[C@H](CCCN=C(N)N)NC(=O)[C@H](CCC(N)=O)NC(=O)[C@@H](NC(=O)[C@@H](NC(=O)[C@@H](N)CCCN=C(N)N)[C@@H](C)CC)C(C)C)C(=O)N[C@@H](CC(C)C)C(=O)N[C@@H](CCCCN)C(=O)N[C@@H](Cc1c[nH]c2ccccc12)C(=O)N[C@@H](CC(C)C)C(=O)N[C@@H](CCCCN)C(=O)N[C@@H](CCCCN)C(=O)N[C@@H](Cc1c[nH]c2ccccc12)C(=O)N[C@@H](Cc1ccc(O)cc1)C(=O)N[C@@H](CCCCN)C(=O)N[C@@H](CC(C)C)C(=O)NCC(=O)N[C@@H](CCCCN)C(N)=O [RIVQRILKWLKKWYKLGK]

MIC (Escherichia coli): > 315 µM
MIC [22]: ≥ 315 µM
MIC [23]: ≥ 315 µM
MIC [24]: ≥ 315 µM
MIC (Staphylococcus aureus): > 315 µM
SMILES: CC[C@H](C)[C@H](NC(=O)[C@H](CC(C)C)NC(=O)[C@H](CO)NC(=O)[C@@H](N)CCCN=C(N)N)C(=O)N[C@H](C(=O)N[C@@H](Cc1cnc[nH]1)C(=O)N[C@@H](CCC(N)=O)C(=O)N[C@@H](CCCN=C(N)N)C(=O)N[C@@H](CC(C)C)C(=O)N[C@@H](Cc1ccccc1)C(N)=O)C(C)C [RSLIVHQRLF]

MIC (Micrococcus luteus A270): 1.56 µM (≈ 2.01 µg/mL)
MIC (Escherichia coli SBS 363): 12.5 µM (≈ 16.1 µg/mL)
MIC (Candida albicans MDM8): 1.56 µM (≈ 2.01 µg/mL)
SMILES: CC[C@H](C)[C@H](NC(=O)[C@H](CC(C)C)NC(=O)[C@H](CCCCN)NC(=O)[C@H](CCCN=C(N)N)NC(=O)[C@H](Cc1ccccc1)NC(=O)[C@H](CC(C)C)NC(=O)[C@H](CO)NC(=O)[C@H](CC(C)C)NC(=O)[C@H](CC(C)C)NC(=O)[C@@H](N)CO)C(=O)N[C@H](C(N)=O)[C@@H](C)O [SLLSLFRKLIT]

MIC (Escherichia coli): > 280 µM
MIC [22]: ≥ 280 µM
MIC [23]: ≥ 280 µM
MIC [24]: ≥ 280 µM
MIC (Staphylococcus aureus): > 280 µM
SMILES: CC[C@H](C)[C@H](NC(=O)[C@H](CC(C)C)NC(=O)[C@H](C)NC(=O)[C@H](CO)NC(=O)[C@H](CCCN=C(N)N)NC(=O)[C@@H](N)CO)C(=O)N[C@H](C(=O)N[C@@H](Cc1cnc[nH]1)C(=O)N[C@@H](CCC(N)=O)C(=O)N[C@@H](CCCN=C(N)N)C(=O)N[C@@H](CC(C)C)C(=O)N[C@@H](Cc1ccccc1)C(N)=O)C(C)C [SRSALIVHQRLF]
